Experimental findings from patent US6239129A, “Cyano-indole serotonin-reuptake inhibitor compounds” (Adir et Compagnie, priority 1999, dated 2001) are described below.

Structures can show the parent of a compound that is named as a salt.

The test has as its target T1, Serotonin-reuptake Sites (Rattus norvegicus, UniProt P31652).
T1 construct: The membranes are prepared from rat frontal cortex; from tissue; host or cells: rat frontal cortex membranes
Briefly: Determination of Affinity for Serotonin-reuptake Sites in the Rat ([^3 H]-paroxetine competition). It counts as binding. Particulars: read-out: dissociation constant Ki. The procedure:
Determination of Affinity for Serotonin-reuptake Sites in the Rat
The incubation buffer contains 50 mM TRIS-HCl (pH 7.4), 120 mM NaCl and 5 mM KCl. Non-specific binding is determined using 10 μM citalopram. At the end of the incubation, the mixture is filtered through filters and washed three times with 5 ml of cooled buffer. The radioactivity retained on the filters is determined by liquid scintillation counting. The binding isotherms are analysed by non-linear regression to determine the IC50 values. The latter are converted into a dissociation constant (Ki) using the Cheng-Prusoff equation: […]

T1 sequence (P31652 whole entry): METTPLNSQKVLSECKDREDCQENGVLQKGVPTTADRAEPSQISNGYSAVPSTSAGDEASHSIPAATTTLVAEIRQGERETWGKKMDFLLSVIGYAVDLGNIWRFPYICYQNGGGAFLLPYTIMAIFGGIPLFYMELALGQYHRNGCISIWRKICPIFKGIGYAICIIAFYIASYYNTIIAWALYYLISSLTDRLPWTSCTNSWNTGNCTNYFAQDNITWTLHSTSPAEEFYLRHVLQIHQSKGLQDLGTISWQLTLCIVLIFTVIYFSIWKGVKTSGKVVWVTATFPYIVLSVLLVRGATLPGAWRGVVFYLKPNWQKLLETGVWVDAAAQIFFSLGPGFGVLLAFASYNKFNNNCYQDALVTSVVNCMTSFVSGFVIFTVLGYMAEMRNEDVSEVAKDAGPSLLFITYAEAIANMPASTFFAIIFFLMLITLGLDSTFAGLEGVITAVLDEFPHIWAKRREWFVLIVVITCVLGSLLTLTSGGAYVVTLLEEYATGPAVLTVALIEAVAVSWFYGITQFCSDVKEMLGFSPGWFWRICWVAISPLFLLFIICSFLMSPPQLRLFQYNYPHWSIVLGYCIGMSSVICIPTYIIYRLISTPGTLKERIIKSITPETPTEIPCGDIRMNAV

In general, Ki refers to a dissociation constant, usually derived from enzyme kinetics or from competition with a known ligand. Take `COc1cncnc1N1CCN(CCCn2ccc3ccc(C#N)cc32)CC1` [Example 1, 1-{3-[4-(5-Methoxy-4-pyrimidinyl)-1-piperazinyl]propyl}-1H-indole-6-carbonitrile dihydrochloride]: the Ki came out at 9.8 nM.
